From US6346542B1, “Pesticidal composition comprising enantiomeric form of fipronil” (priority 1999, dated 2002)

Key:
[1] = test system: dogs; assay: Emesis after oral administration; assay type: in vivo, dog; settings: for emetic activity on oral administration: oral administration to animals, dose not stated; for dogs showing emesis: 20 mg/kg oral capsule, within 5 hours after administration
Method: Another unexpected substantial advantage is that the (S) enantiomer provides a substantial reduction in emesis when administered to an animal orally. By the term “emesis” is meant vomiting. Generally, an emetic substance elicits emesis in less than 24 hours after administration, usually less than 8 hours, more usually less than 2 hours.

[2] = test system: dogs; settings: 10 mg/kg in dogs
[3] = test system: cat fleas (Ctenocephalides felis); assay: Oral efficacy against cat fleas on infested dogs; assay type: in vivo
[4] = test system: brown dog ticks (Rhipicephalus sanguineus); assay: Oral efficacy against brown dog ticks on infested dogs; settings: for ticks remaining: 23 days after administration

| Compound | emetic activity on oral administration [1] | per cent (%) mortality of the arthropods, Flea ([3]; 1 mg/kg oral, 1 DAT) [%] | per cent (%) mortality of the arthropods, Flea ([3]; 1 mg/kg oral, 9 DAT) [%] | per cent (%) mortality of the arthropods, Flea ([3]; 1 mg/kg oral, 16 DAT) [%] | per cent (%) mortality of the arthropods, Flea ([3]; 1 mg/kg oral, 23 DAT) [%] | per cent (%) mortality of the arthropods, Flea ([3]; 3 mg/kg oral, 1 DAT) [%] | per cent (%) mortality of the arthropods, Flea ([3]; 3 mg/kg oral, 9 DAT) [%] | per cent (%) mortality of the arthropods, Flea ([3]; 3 mg/kg oral, 16 DAT) [%] | per cent (%) mortality of the arthropods, Flea ([3]; 3 mg/kg oral, 23 DAT) [%] | per cent (%) mortality of the arthropods, Flea ([3]; 10 mg/kg oral, 1 DAT) [%] | per cent (%) mortality of the arthropods, Flea ([3]; 10 mg/kg oral, 9 DAT) [%] | per cent (%) mortality of the arthropods, Flea ([3]; 10 mg/kg oral, 16 DAT) [%] | per cent (%) mortality of the arthropods, Flea ([3]; 10 mg/kg oral, 23 DAT) [%] | per cent (%) mortality of the arthropods, Flea ([3]; 20 mg/kg oral capsule, 1 DAT) [%] | per cent (%) mortality of the arthropods, Flea ([3]; 20 mg/kg oral capsule, 9 DAT) [%] | per cent (%) mortality of the arthropods, Flea ([3]; 20 mg/kg oral capsule, 16 DAT) [%] | per cent (%) mortality of the arthropods, Flea ([3]; 20 mg/kg oral capsule, 23 DAT) [%] | per cent (%) mortality of the arthropods, Flea ([3]; 20 mg/kg oral capsule, 31 DAT) [%] | dogs showing emesis [1] [%] | per cent (%) mortality of the arthropods, Tick ([4]; 1 mg/kg oral, 1 DAT) [%] | also measured |
| --- | --- | --- | --- | --- | --- | --- | --- | --- | --- | --- | --- | --- | --- | --- | --- | --- | --- | --- | --- | --- | --- |
| N#Cc1nn(-c2c(Cl)cc(C(F)(F)F)cc2Cl)c(N)c1[S+]([O-])C(F)(F)F (racemic) [fipronil, 5-amino-3-cyano-1-(2,6-dichloro-4-trifluoromethylphenyl)-4-trifluoromethylsulfinylpyrazole] | causes emesis |  |  |  |  |  |  |  |  |  |  |  |  |  |  |  |  |  |  |  |  |
| CC(=O)Nc1c([S@@+]([O-])C(F)(F)F)c(C#N)nn1-c1c(Cl)cc(C(F)(F)F)cc1Cl (single isomer, unassigned) [5-acetylamino (R) enantiomer] |  |  |  |  |  |  |  |  |  |  |  |  |  |  |  |  |  |  |  |  | mortality [2]: 33% |
| N#Cc1nn(-c2c(Cl)cc(C(F)(F)F)cc2Cl)c(N)c1[S@+]([O-])C(F)(F)F [Compound B, (S)-5-amino-3-cyano-1-(2,6-dichloro-4-trifluoromethylphenyl)-4-trifluoromethylsulfinylpyrazole] | lower emetic activity | 100 | 100 | 90 | 79 | 100 | 98 | 67 | 50 | 100 | 99 | 87 | 83 | 100 | 96 | 86 | 88 | 84 | 50 | 100 | symptoms of emesis ([1]; oral, dogs, at any rate (1, 3, 10 mg/kg)): substantially no symptoms of emesis; per cent (%) mortality of the arthropods, Tick ([4]; 1 mg/kg oral, 9 DAT): 100%; per cent (%) mortality of the arthropods, Tick ([4]; 1 mg/kg oral, 16 DAT): 87%; per cent (%) mortality of the arthropods, Tick ([4]; 1 mg/kg oral, 23 DAT): 85%; per cent (%) mortality of the arthropods, Tick ([4]; 3 mg/kg oral, 1 DAT): 98%; per cent (%) mortality of the arthropods, Tick ([4]; 3 mg/kg oral, 9 DAT): 99%; per cent (%) mortality of the arthropods, Tick ([4]; 3 mg/kg oral, 16 DAT): 75%; per cent (%) mortality of the arthropods, Tick ([4]; 3 mg/kg oral, 23 DAT): 63%; per cent (%) mortality of the arthropods, Tick ([4]; 10 mg/kg oral, 1 DAT): 99%; per cent (%) mortality of the arthropods, Tick ([4]; 10 mg/kg oral, 9 DAT): 100%; per cent (%) mortality of the arthropods, Tick ([4]; 10 mg/kg oral, 16 DAT): 85%; per cent (%) mortality of the arthropods, Tick (effectiveness) ([4]; 10 mg/kg oral, 23 DAT): 85%; ticks remaining ([4]; 10 mg/kg oral): 15%; per cent (%) mortality of the arthropods, Tick ([4]; 20 mg/kg oral capsule, 1 DAT): 99%; per cent (%) mortality of the arthropods, Tick ([4]; 20 mg/kg oral capsule, 9 DAT): 97%; per cent (%) mortality of the arthropods, Tick ([4]; 20 mg/kg oral capsule, 16 DAT): 87%; per cent (%) mortality of the arthropods, Tick ([4]; 20 mg/kg oral capsule, 23 DAT): 86%; per cent (%) mortality of the arthropods, Tick ([4]; 20 mg/kg oral capsule, 31 DAT): 92% |
| N#Cc1nn(-c2c(Cl)cc(C(F)(F)F)cc2Cl)c(N)c1[S@@+]([O-])C(F)(F)F [Compound C, (R)-5-amino-3-cyano-1-(2,6-dichloro-4-trifluoromethylphenyl)-4-trifluoromethylsulfinylpyrazole] |  | 100 | 100 | 76 | 72 | 100 | 78 | 72 | 64 | 100 | 95 | 72 | 86 | 100 | 86 | 69 | 67 | 69 | 90 | 100 | animals showing emesis symptoms ([1]; 3 mg/kg oral, dogs, after 2 hours): 20%; animals showing emesis symptoms ([1]; 10 mg/kg oral, dogs, after 1 hour): 40%; animals showing emesis symptoms ([1]; 10 mg/kg oral, dogs, after 3 hours): 20%; per cent (%) mortality of the arthropods, Tick ([4]; 1 mg/kg oral, 9 DAT): 100%; per cent (%) mortality of the arthropods, Tick ([4]; 1 mg/kg oral, 16 DAT): 66%; per cent (%) mortality of the arthropods, Tick ([4]; 1 mg/kg oral, 23 DAT): 78%; per cent (%) mortality of the arthropods, Tick ([4]; 3 mg/kg oral, 1 DAT): 93%; per cent (%) mortality of the arthropods, Tick ([4]; 3 mg/kg oral, 9 DAT): 89%; per cent (%) mortality of the arthropods, Tick ([4]; 3 mg/kg oral, 16 DAT): 71%; per cent (%) mortality of the arthropods, Tick ([4]; 3 mg/kg oral, 23 DAT): 65%; per cent (%) mortality of the arthropods, Tick ([4]; 10 mg/kg oral, 1 DAT): 97%; per cent (%) mortality of the arthropods, Tick ([4]; 10 mg/kg oral, 9 DAT): 97%; per cent (%) mortality of the arthropods, Tick ([4]; 10 mg/kg oral, 16 DAT): 71%; per cent (%) mortality of the arthropods, Tick (effectiveness) ([4]; 10 mg/kg oral, 23 DAT): 71%; ticks remaining ([4]; 10 mg/kg oral): 29%; per cent (%) mortality of the arthropods, Tick ([4]; 20 mg/kg oral capsule, 1 DAT): 97%; per cent (%) mortality of the arthropods, Tick ([4]; 20 mg/kg oral capsule, 9 DAT): 96%; per cent (%) mortality of the arthropods, Tick ([4]; 20 mg/kg oral capsule, 16 DAT): 85%; per cent (%) mortality of the arthropods, Tick ([4]; 20 mg/kg oral capsule, 23 DAT): 77%; per cent (%) mortality of the arthropods, Tick ([4]; 20 mg/kg oral capsule, 31 DAT): 81% |
